These results are taken from publication PMC12186257, “Serendipitous and Systematic Chemoproteomic Discovery of MBLAC2, HINT1, and NME1‑4 Inhibitors from Histone Deacetylase-Targeting Pharmacophores” (ACS Chemical Biology, 2025).

One experiment deals with T1, MBLAC2 (Homo sapiens, UniProt Q68D91).
T1 construct: incubated at increasing concentrations with a mixture of lysates of MV4–11 and SW620 cells; endogenous in cells; host or cells: mixed lysate of MV4-11 and SW620 cells
T1 sequence (Q68D91 1-279): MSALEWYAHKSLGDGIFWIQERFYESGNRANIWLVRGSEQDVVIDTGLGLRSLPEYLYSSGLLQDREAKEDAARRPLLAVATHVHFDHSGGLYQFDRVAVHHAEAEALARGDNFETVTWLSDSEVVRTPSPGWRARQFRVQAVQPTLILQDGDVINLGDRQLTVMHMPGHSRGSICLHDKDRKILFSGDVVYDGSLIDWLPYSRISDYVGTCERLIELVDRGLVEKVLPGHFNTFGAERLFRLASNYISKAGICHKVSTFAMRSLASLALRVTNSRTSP
Description: chemoproteomic competition assay (MV4-11/SW620 lysate, iA/iC/iQ beads, MS readout). In kind it is binding. Particulars: for EC50: focused library profiling; for Kd / MBLAC2 binding: nine-dose competition assay; for Kd: read-out: KDapp MBLAC2. The protocol:
(§1) MBLAC2 is a metalloenzyme predicted to harbor one or two Zn^2+ ions in its active site. […] In this assay, compounds of interest are incubated at increasing concentrations with a mixture of lysates of MV4–11 and SW620 cells. The compound-treated lysates are then mixed with bead-immobilized hydroxamic acid-containing compounds iA, iC, and iQ (immobilized Quisinostat), which pull down compound-binding proteins such as HDACs, MBLAC2, ISOC1/2, ALDH2, and GATD3A (Figure a) that can be identified and quantified by mass spectrometry (MS). Proteins targeted by the library compounds in a preincubation step are prevented from being pulled down by the immobilized probes, leading to a dose-dependent reduction in MS signal. Initially, 12 metal-chelating compounds were profiled at two concentrations (10 μM and 100 μM) (Figure S3).
(§2) Chemoproteomic competition assays
Sample preparation. For the MBLAC2 and HDAC inhibitor competition assay, the generation of affinity matrices, lysate generation, pulldown assay, and sample preparation were performed as described in […]
detail in REF1. […]
(§3) LC-MS/MS. The different sample types were measured with different LC-MS/MS settings. MBLAC2 2-dose competition assays were measured with the Lumos1 setup, MBLAC2 9-dose competition assays were measured with the Lumos2 setup, and kinobeads assays were measured with the Eclipse setup.
(§4) Peptides were analyzed via LC–MS/MS on a Dionex Ultimate3000 nano HPLC coupled to either one of two Orbitrap Fusion Lumos mass spectrometers, or to an Orbitrap Eclipse mass spectrometer, operated via the Thermo Scientific Xcalibur software.
(§5) In the all setups, peptides were loaded on a trap column (100 μm × 2 cm, packed in-house with Reprosil-Gold C18 ODS-3 5 μm resin, Dr. Maisch, Ammerbuch) and washed with 5 μL/min solvent A (0.1% formic acid in HPLC grade water) for 10 min. Peptides were then separated on an analytical column (75 μm × 40 cm, packed in-house with Reprosil-Gold C18 3μm resin, Dr. Maisch, Ammerbuch) using a 50 min gradient ranging from 4 to 32% solvent B (0.1% formic acid, 5% DMSO in acetonitrile) in solvent A (0.1% formic acid, 5% DMSO in HPLC grade water) at a flow rate of 300 nL/min.
(§6) The mass spectrometers were operated in data-dependent mode, automatically switching between MS1 and MS2 spectra. MS1 spectra were acquired over a mass-to-charge (m/z) range of 360–1300 m/z at a resolution of 60,000 (at m/z 200) in the Orbitrap using a maximum injection time of 50 ms and an automatic gain control (AGC) target value of 4e5.
(§7) In Lumos settings, up to 12 peptide precursors were isolated in (isolation width of 1.2 Th for Lumos1 and 1.7 for Lumos2, maximum injection time of 75 ms, AGC value of 1e5 for Lumos1 and 2e5 for Lumos2), fragmented by HCD using 30% normalized collision energy (NCE) and analyzed in the Orbitrap at a resolution of 15,000 (Lumos2) or 30,000 (Lumos1). The dynamic exclusion duration of fragmented precursor ions was set to 20 s (Lumos1) or 30 s (Lumos2). In Eclipse measurements, a cycle time of 2 s was chosen. Peptides were isolated in the quadrupole with an isolation offset of 1.2 (isolation width of 1.2 Th, maximum injection time of 54 ms, AGC target of 200%) and fragmented by HCD with an NCE of 30% and analyzed in the Orbitrap at a resolution of 30,000. The dynamic exclusion on the Eclipse was set to 20 s.
Data analysis. The data analysis of MBLAC2/HDAC inhibitor competition assays was performed as described in detail in REF1. LFQ intensity values were used for the calculation of relative residual binding to the affinity matrix. […]

The test system of experiment [1] is cell proliferation or fitness. Description: alamar blue cell metabolic activity assay with MBLAC2 inhibitors. In kind it is cell-based. Particulars: 72h, five concentrations. The text has this: Our earlier observation that MBLAC2 inactivation leads to the upregulation of extracellular vesicles (EVs), combined with evidence of MBLAC2’s association with late endosomes and membrane processes, , prompted us to hypothesize that MBLAC2 inactivation might impair endocytosis. To test this hypothesis, we measured clathrin-mediated endocytosis of fluorescently labeled transferrin (TF) in the presence and absence of MBLAC2 inhibitors. […] Thus, the precise biological roles of MBLAC2 remain elusive. However, we anticipate that the selective compounds identified in this study will serve as valuable tools for elucidating the cell biological functions of MBLAC2 in future research.
Fig. S6| Characterization of MBLAC2 inhibitors. a, 9-dose competition assay of MBLAC2 selective inhibitors KV-65 and KV-79. b, Impact of MBLAC2i on cell metabolic activity assessed in an alamar blue assay. Cells were treated in triplicates with five concentrations of MBLAC2i and a DMSO vehicle control for 72h. c, Clathrin-mediated endocytosis assay based on measurement of fluorescent transferrin uptake. Dynasore and Pitstop-2 serve as positive controls. HeLa cells were pre-incubated with 100 µM Dynasore, 2 µM KV65, or 2 µM KV79 for 20 h before the microscopy readout. 30 µM Pitstop-2 was added only for 15 min before readout. […]

For the next experiment, the system named is HeLa cells. Description: clathrin-mediated endocytosis of fluorescently labeled transferrin. In kind it is cell-based. Particulars: HeLa cells, 2 µM, 20 h.
A further experiment concerns Toxoplasma gondii. Further details: method as in PMID 33360687, PMID 35483428, PMID 38431113, PMID 29414107. Particulars: in human host cells; cited from earlier work.
Experiment [2] has as its system compound-binding proteins such as HDACs, MBLAC2, ISOC1/2, ALDH2, and GATD3A. The experiment can be described thus: chemoproteomic competition assay, proteome-wide target binding profile. Further details: species or system human. The conditions noted are these: dose-dependent competition. The protocol:
as §1, §2
Sample preparation. For the MBLAC2 and HDAC inhibitor competition assay, the generation of affinity matrices, lysate generation, pulldown assay, and sample preparation were performed as described in detail in REF1. For the kinobeads assay, the generation of affinity matrices, lysate generation, pulldown assay, and sample preparation were performed as described in detail in REF2.
as §3, §4, §5, §6
as §7, with “HCD with an NCE of 30% and analyzed in the Orbitrap at a resolution of 30,000. The dynamic exclusion on the Eclipse was set to 20 s.” left out

Experiment [3] addresses recombinant HINT1 (hHint1) (Homo sapiens, UniProt P49773). Description: HINT1 enzyme activity assay (TrpA hydrolysis, fluorescence). In kind it is biochemical. Particulars: hHint1 0.002 µM, TrpA 0.5 µM, 25 °C. The text has this:
While the biologically relevant substrates of HINT1 have not been clearly elucidated, the protein has been implicated in opioid receptor signaling, − regulation of the melanoma-associated transcription factor MITF, , and DNA damage repair. These functions position HINT1 as a potential pharmacological target for treating conditions such as opioid resistance or melanoma. The only reported HINT1-targeting pharmacophores are nucleoside-based nonhydrolyzable substrate analogs, such as the carbamate TrpGC (Figure a). , We evaluated the inhibitory potential of KV-24 and KV-30 in enzyme activity assays using recombinant HINT1. […] This discrepancy could be attributed to reduced affinity for the recombinant enzyme due to the absence of post-translational modifications (PTMs), cofactors, or interaction partners that enhance drug binding. Alternatively, it might result from substrate dilution in the lysate, whereas high substrate concentrations in the enzyme activity assay require the inhibitor to compete more effectively.
Mouse brain proteomics – LC-MS/MS. Proteome analysis of brain mouse tissue samples was performed on a micro-flow LC timsTOF HT setup described in detail in REF14. Liquid chromatography in micro-flow mode was performed on a Vanquish Neo UHPLC System (Thermo Fisher Scientific) at a flow rate of 50 µL/min. […] 10 µg of peptide mix was injected and analyzed using a 58 min gradient starting at 1% B up to 45% B (1 h method). […]
Mouse proteomics data analysis. The data files were analyzed with DIA-NN 1.8.1. […] The resulting protein group tables were further analyzed by Perseus 1.6.2.2. […]
CME of transferrin and confocal microscopy analyses.For transferrin uptake experiments HeLa cells were seeded on Matrigel-coated coverslips, and incubated with 0.1 % DMSO, or with 100 µM dynasore, 20 µM KV50, 2 µM KV65, or 2 µM KV79 in media containing 10% FCS at 37°C for 20 h. […] All inhibitor treatments were performed in duplicate, to enable quantification of surface levels of transferrin receptors, and to assess the capability of transferrin receptor endocytosis. […]

recombinant HINT1 (hHint1), sequence (P49773 whole entry): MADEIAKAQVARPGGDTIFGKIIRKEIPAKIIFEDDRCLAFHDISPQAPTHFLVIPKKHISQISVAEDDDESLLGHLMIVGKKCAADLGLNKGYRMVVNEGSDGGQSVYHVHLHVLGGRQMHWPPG
Description for HeLa cells: Given that local GTP production by NME1 and NME2 is essential for fueling dynamin-driven endocytosis, we investigated the effect of KV-50-mediated NME1/2 inhibition on fluorescent transferrin (TF) uptake in cells. HeLa cells were treated with KV-50 or known endocytosis inhibitors (Pitstop-2 and Dynasore), and surface-bound and internalized fluorescent TF were quantified.

What is called EC50 is the concentration needed to bring the measured effect to its halfway point. A high value points to weaker potency. `O=C(NO)c1ccc(CN2c3ccccc3Sc3ccccc32)cc1` [KV-46] yielded a 50% effective concentration (EC50) at MBLAC2 of 83 nM.

In turn, `O=C(NO)c1ccc(CN2c3ccccc3S(=O)(=O)c3ccccc32)cc1` [KV-65] showed an EC50 at MBLAC2 of 37 nM. The “concentration up to which cell proliferation or fitness not affected” value in experiment [1] was greater than 10 µM. In the experiment with HeLa cells, the “TF uptake” value is reported as “not statistically significant”.

As to `CN1CCc2c(c3ccccc3n2Cc2ccc(C(=O)NO)cc2)C1` [Tubastatin A, reference compound], the “inhibition of proliferation of protozoans” value in the experiment with Toxoplasma gondii is on record as “potently inhibit the proliferation”.

As to `O=C(CCCCCCC(=O)NO)NO` [SBHA, suberoyl-bis-hydroxamic acid, reference compound], the “targets / off-targets bound” value in experiment [2] is “bind off-targets such as ISOC1/2, GATD3A, and ALDH2”.

On to `CN(CC(=O)N(Cc1ccc(C2CCCCC2)cc1)c1ccc(C(=O)NO)cc1)S(=O)(=O)c1c(F)c(F)c(F)c(F)c1F` [SH5–07], for which the Kd at MBLAC2 is roughly 800 nM.

Turning to ACY-1083, the “MBLAC2 binding” value on MBLAC2 is reported as “potently bound MBLAC2”.

On to `Cn1c(CCCCCCC(=O)NO)nc2cc(N(CCCl)CCCl)ccc21` [Tinostamustine, reference compound], for which the “targets / off-targets bound” value in experiment [2] was “bind off-targets such as ISOC1/2, GATD3A, and ALDH2”.

By IC50 is commonly meant the point on the concentration scale where inhibition reaches its midpoint. As for `Nc1nc2c(ncn2[C@@H]2O[C@H](COC(=O)NCCc3c[nH]c4ccccc34)[C@@H](O)[C@H]2O)c(=O)[nH]1` [TrpGC, reference compound], the IC50 in experiment [3] worked out at 9.1 µM.

As to `O=C(NO)c1ccc(Cn2c(=O)n(CCc3ccccc3)c(=O)c3ccccc32)cc1` [Compound J22352], the “MBLAC2 binding” value on MBLAC2 is reported as “potently bound MBLAC2”.

Regarding `O=C(NO)c1ccc(CN2c3ccccc3Sc3ccc(C(F)(F)F)cc32)cc1` [KV-79], the “selectivity compared to HDACs” value at MBLAC2 (abstract) is reported as “over 60 fold”. Besides, on MBLAC2, a half-maximal response (EC50) required 25 nM. In experiment [1], the “concentration up to which cell proliferation or fitness not affected” value is greater than 10 µM. Besides, the “TF uptake” value with HeLa cells is given as “not statistically significant”.

`O=C(NO)c1ccc(CN2CCCc3cc(Cl)ccc32)cc1` [SW-100]: on MBLAC2, the “MBLAC2 binding” value was “potently bound MBLAC2” and the Kd was found to be 75 nM.
